Consider one molecule from patent US9884063B2, “Amido-substituted azole compounds” (Bayer Pharma Aktiengesellschaft, priority 2014, dated 2018).

pIC50: −log10 of the molar value.

One may read the pIC50 as the negative decadic logarithm of the IC50, by convention in mol/L. Low values mean a large IC50, high ones a small IC50.

In experiment [1] the test system is wildtype Wnt signaling cascade. The experiment can be described thus: HEK293 TOP Assay (Super TopFlash luciferase reporter, Wnt-3a stimulated). It counts as cell-based. Particulars: Homo sapiens, HEK293, 16 h, HEK293 TOP reporter cell line, Wnt-3a at EC50, 16 hours incubation, compound dilution series 50 μM to 15 nM. The method in brief:
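Compounds (50 μM down to 15 nM, 3.16-fold steps, in CAFTY buffer pH 7.4, 2 mM Ca2+, 0.01% BSA) tested in parallel on TOP and FOP HEK293 reporter lines to define selective wildtype Wnt inhibition. Pathway driven by recombinant human Wnt-3a applied at 2500–5 ng/ml in two-fold dilutions.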

A further experiment concerns the target T1, TNKS2 (Homo sapiens, UniProt Q9H2K2).
T1 sequence (Q9H2K2 1-1166): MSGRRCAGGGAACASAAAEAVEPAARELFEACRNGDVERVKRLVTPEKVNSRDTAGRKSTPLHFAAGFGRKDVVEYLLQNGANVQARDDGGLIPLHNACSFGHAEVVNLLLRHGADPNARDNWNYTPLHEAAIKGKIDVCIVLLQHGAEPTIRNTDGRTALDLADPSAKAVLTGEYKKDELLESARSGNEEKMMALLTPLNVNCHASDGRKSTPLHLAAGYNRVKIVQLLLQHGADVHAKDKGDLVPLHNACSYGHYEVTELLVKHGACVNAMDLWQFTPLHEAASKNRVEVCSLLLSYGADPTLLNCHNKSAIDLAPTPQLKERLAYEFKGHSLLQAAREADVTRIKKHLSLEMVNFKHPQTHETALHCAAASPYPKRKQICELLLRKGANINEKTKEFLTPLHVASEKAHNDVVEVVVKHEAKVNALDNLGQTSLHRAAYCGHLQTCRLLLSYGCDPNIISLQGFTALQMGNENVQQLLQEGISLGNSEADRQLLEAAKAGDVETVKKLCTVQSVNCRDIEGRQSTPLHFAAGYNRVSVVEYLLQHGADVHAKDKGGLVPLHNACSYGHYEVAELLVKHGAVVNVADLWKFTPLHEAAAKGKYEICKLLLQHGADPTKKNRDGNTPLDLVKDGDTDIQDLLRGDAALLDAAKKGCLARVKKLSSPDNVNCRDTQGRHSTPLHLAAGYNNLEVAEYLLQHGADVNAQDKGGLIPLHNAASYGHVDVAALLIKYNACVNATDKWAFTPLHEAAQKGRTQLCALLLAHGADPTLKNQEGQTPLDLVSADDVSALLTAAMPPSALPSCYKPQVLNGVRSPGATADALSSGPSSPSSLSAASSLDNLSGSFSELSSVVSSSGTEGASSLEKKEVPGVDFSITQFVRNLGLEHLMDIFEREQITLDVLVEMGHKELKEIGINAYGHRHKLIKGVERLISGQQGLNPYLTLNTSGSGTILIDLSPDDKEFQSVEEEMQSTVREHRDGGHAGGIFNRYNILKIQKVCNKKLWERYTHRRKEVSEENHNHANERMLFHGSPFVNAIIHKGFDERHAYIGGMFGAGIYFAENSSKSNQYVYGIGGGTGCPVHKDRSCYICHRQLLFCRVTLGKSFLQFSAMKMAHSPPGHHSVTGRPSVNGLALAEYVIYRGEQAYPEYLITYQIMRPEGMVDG
The experiment can be described thus: Modified TNKS2 Assay 3 (BPS kit #80578, biotin-NAD+, 96 well). It counts as biochemical. As to conditions: human TNKS2, BPS kit #80578, 96 well. The method in brief: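 Commercial kit assay measuring TNKS2-catalysed incorporation of biotin-labelled NAD+ into a protein substrate, detected by streptavidin-HRP chemiluminescence. Run per manufacturer's protocol; IC50 is the concentration halving the normalised signal.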

Regarding `O=C(Nc1ccc(NC(=O)c2[nH]cnc2C(=O)NCCN2CCCCC2)cn1)c1ccc(F)cc1Cl` [Example 110, N^5-{6-[(2-chloro-4-fluorobenzoyl)amino]pyridin-3-yl}-N^4-[2-(piperidin-1-yl)ethyl]-1H-imidazole-4,5-dicarboxamide], the results for the negative-log IC50 (pIC50) (in experiment [1]; at TNKS2) were 7.22 and 8.40, respectively.
